Experimental data: article PMC4904262 (ACS Medicinal Chemistry Letters, 2016)

What was measured:
Conditions in all cases: 1 µM, ATP at Km
[1] = target: ABL (Homo sapiens, UniProt P00519)
[2] = target: BRSK2 (Homo sapiens, UniProt Q8IWQ3)
[3] = target: CDK7/CYCLINH/MAT1 (Homo sapiens, UniProt P50613)
[4] = target: CHK2 (Homo sapiens, UniProt O96017)
[5] = target: DAPK1 (Homo sapiens, UniProt P53355)
[6] = target: EEF-2K (Homo sapiens, UniProt O00418)
[7] = target: EPHA3 (Homo sapiens, UniProt P29320)
[8] = target: EPHB3 (Homo sapiens, UniProt P54753)
[9] = target: EPHB4 (Homo sapiens, UniProt P54760)
[10] = target: FES (Homo sapiens, UniProt P07332)
[11] = target: FGFR1 (Homo sapiens, UniProt P11362)
[12] = target: FGFR2 (Homo sapiens, UniProt P21802)
[13] = target: FGFR4 (Homo sapiens, UniProt P22455)
[14] = target: FMS (Homo sapiens, UniProt P07333)
[15] = target: MEK1 (Homo sapiens, UniProt Q02750)
[16] = target: MINK (Homo sapiens, UniProt Q8N4C8)
[17] = tested on: MLCK
[18] = target: MST3 (Homo sapiens, UniProt Q9Y6E0)
[19] = target: PAK5 (Homo sapiens, UniProt Q9P286)
[20] = target: PAR-1BALPHA (Homo sapiens, UniProt Q7KZI7)
[21] = target: PASK (Homo sapiens, UniProt Q96RG2)
[22] = target: PI3K DELTA (Homo sapiens, UniProt O00329)
[23] = target: PI3K GAMMA (Homo sapiens, UniProt P48736)
[24] = target: PKCDELTA (Homo sapiens, UniProt Q05655)
[25] = target: PKCETA (Homo sapiens, UniProt P24723)
[26] = target: PKCMU (Homo sapiens, UniProt Q15139)
[27] = target: PLK3 (Homo sapiens, UniProt Q9H4B4)
[28] = target: PRKX (Homo sapiens, UniProt P51817)
[29] = target: ROCK-II (Homo sapiens, UniProt O75116)
[30] = target: RSK2 (Homo sapiens, UniProt P51812)
[31] = target: SAPK2B (Homo sapiens, UniProt Q15759)
[32] = target: SAPK4 (Homo sapiens, UniProt O15264)
[33] = target: SRC (Homo sapiens, UniProt P12931)
[34] = target: SYK (Homo sapiens, UniProt P43405)
[35] = target: TAK1 (Homo sapiens, UniProt O43318)
[36] = target: CK1GAMMA2 (Homo sapiens, UniProt P78368)
[37] = target: DCAMKL2 (Homo sapiens, UniProt Q8N568)
[38] = target: GRK5 (Homo sapiens, UniProt P34947)
[39] = target: […] (Homo sapiens, UniProt Q13557)
[40] = target: […] (Homo sapiens, UniProt Q8IU85)
[41] = target: PIM-3 (Homo sapiens, UniProt Q86V86)
[42] = target: GRK7 (Homo sapiens, UniProt Q8WTQ7)
[43] = target: TXK (Homo sapiens, UniProt P42681)
[44] = target: MELK (Homo sapiens, UniProt Q14680)
[45] = target: AURKC (Homo sapiens, UniProt Q9UQB9)
Sequence of AURKC (Q9UQB9 whole entry): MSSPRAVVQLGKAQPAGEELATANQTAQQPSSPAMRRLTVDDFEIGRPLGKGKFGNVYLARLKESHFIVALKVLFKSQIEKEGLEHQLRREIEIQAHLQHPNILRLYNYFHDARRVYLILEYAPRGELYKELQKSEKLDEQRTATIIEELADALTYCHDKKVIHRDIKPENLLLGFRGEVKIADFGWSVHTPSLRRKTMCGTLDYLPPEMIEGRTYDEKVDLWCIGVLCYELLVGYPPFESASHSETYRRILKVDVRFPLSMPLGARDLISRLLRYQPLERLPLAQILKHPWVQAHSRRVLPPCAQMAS

Sequence of SAPK4 (O15264 whole entry): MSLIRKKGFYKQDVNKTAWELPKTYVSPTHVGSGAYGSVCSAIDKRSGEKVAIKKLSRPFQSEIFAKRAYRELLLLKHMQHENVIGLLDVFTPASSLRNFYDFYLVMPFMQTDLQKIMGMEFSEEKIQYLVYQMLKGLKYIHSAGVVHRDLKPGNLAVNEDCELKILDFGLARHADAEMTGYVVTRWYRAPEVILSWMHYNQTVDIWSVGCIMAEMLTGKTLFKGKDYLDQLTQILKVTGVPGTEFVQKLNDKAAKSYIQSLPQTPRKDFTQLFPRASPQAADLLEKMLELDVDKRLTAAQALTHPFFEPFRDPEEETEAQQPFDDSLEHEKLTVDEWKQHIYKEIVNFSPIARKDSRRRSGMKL
Sequence of […] (Homo sapiens, UniProt Q8IU85) (Q8IU85 whole entry): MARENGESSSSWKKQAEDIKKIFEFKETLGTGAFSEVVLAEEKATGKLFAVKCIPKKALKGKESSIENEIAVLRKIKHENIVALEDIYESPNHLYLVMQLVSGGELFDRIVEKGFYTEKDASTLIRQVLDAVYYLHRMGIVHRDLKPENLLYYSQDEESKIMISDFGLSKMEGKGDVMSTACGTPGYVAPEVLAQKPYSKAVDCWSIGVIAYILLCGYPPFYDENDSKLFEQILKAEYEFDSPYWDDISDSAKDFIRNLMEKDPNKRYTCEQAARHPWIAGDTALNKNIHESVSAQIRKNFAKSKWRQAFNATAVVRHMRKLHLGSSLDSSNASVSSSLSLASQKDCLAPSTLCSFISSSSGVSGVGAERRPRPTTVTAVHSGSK
Sequence of PKCETA (P24723 whole entry): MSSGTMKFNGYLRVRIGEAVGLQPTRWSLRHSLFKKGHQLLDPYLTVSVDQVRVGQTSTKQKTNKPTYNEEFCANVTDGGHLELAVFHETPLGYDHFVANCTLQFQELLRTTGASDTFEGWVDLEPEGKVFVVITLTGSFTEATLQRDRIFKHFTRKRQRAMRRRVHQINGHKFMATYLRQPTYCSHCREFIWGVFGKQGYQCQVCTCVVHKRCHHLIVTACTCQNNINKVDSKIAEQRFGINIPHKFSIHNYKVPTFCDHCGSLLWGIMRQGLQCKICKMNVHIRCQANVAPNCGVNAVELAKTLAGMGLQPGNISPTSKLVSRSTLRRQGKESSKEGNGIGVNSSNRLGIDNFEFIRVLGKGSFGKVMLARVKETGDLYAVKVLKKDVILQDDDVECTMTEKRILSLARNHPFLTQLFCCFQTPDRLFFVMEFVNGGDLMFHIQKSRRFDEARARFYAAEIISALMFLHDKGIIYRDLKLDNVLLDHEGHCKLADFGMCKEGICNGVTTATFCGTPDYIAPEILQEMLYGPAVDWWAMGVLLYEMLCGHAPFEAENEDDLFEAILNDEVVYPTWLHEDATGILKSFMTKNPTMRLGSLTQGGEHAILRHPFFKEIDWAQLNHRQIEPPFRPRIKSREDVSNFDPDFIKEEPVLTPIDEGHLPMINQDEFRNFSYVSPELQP
Sequence of EEF-2K (O00418 whole entry): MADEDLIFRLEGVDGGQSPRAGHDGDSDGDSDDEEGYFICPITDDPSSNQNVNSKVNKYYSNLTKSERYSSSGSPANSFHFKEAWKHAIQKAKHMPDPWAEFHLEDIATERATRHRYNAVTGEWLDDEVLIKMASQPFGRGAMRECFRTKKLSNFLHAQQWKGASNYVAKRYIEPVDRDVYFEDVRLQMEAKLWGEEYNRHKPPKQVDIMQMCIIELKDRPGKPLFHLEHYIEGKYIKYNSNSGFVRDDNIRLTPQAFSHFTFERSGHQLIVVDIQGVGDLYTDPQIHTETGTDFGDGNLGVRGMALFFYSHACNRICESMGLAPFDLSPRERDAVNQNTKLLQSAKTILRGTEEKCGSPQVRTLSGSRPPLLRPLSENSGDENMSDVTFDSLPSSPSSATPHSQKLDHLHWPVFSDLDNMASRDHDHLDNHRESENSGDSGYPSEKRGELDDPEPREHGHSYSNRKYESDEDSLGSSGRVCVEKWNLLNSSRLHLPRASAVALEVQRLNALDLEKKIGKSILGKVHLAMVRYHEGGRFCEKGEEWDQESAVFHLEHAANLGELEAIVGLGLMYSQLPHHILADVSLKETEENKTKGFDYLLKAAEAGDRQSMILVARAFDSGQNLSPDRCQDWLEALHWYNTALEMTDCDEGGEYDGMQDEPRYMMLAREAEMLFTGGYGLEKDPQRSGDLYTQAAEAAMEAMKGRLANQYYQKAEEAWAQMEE
Sequence of PKCDELTA (Q05655 whole entry): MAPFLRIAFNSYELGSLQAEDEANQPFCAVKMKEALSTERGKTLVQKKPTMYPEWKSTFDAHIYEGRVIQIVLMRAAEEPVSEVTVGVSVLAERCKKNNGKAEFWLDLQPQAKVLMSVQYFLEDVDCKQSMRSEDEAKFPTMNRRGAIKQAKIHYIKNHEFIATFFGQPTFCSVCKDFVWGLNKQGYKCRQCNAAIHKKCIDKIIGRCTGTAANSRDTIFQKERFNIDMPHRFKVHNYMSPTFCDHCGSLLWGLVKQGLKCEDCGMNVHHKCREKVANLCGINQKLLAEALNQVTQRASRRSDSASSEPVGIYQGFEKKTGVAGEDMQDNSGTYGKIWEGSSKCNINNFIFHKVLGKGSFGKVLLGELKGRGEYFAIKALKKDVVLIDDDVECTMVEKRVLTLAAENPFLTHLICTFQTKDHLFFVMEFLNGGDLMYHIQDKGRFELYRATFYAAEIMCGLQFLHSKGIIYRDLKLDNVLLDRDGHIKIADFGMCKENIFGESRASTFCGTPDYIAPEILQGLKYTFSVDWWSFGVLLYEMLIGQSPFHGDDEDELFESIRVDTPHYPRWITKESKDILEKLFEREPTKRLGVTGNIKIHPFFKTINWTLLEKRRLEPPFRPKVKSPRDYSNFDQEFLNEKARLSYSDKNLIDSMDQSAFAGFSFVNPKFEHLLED
Sequence of EPHB4 (P54760 16-987): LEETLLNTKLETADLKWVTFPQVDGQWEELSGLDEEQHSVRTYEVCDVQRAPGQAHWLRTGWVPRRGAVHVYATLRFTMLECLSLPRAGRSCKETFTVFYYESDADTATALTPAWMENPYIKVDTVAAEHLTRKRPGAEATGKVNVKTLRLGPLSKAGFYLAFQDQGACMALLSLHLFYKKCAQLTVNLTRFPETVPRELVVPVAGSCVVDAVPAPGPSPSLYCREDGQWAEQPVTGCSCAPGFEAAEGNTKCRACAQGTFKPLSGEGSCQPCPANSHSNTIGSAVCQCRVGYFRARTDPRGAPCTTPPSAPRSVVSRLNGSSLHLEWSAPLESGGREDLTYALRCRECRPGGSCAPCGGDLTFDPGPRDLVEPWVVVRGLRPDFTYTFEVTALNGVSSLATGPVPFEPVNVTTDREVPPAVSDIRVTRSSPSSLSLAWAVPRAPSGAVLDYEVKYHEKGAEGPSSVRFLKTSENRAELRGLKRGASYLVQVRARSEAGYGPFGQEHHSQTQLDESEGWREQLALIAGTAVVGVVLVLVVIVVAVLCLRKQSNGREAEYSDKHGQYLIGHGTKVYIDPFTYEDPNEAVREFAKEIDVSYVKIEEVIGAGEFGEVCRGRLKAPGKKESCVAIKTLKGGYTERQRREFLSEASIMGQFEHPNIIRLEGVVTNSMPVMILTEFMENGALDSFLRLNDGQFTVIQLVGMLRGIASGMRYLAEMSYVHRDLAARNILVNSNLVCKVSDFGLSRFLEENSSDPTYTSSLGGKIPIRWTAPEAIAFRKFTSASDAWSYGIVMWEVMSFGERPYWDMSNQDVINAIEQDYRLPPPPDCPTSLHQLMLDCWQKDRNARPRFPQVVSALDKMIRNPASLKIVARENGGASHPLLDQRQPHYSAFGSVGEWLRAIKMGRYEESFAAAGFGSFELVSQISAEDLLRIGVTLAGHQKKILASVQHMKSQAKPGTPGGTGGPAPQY
Sequence of GRK7 (Q8WTQ7 whole entry): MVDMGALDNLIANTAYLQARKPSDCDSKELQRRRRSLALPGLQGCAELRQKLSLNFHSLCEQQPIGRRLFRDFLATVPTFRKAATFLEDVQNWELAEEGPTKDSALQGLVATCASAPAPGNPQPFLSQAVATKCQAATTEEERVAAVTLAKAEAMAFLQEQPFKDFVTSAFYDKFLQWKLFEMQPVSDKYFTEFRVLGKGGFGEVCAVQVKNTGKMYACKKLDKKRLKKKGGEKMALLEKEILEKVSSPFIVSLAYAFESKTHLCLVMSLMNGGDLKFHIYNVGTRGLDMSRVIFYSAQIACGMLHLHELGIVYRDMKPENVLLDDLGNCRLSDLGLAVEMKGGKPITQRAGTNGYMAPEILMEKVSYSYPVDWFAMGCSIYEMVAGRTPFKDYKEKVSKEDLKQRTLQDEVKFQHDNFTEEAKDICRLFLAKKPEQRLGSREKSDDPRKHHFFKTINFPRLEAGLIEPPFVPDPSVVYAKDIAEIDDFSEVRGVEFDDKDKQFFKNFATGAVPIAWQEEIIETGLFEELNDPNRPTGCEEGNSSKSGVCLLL
Sequence of TAK1 (O43318 1-303 limits assumed): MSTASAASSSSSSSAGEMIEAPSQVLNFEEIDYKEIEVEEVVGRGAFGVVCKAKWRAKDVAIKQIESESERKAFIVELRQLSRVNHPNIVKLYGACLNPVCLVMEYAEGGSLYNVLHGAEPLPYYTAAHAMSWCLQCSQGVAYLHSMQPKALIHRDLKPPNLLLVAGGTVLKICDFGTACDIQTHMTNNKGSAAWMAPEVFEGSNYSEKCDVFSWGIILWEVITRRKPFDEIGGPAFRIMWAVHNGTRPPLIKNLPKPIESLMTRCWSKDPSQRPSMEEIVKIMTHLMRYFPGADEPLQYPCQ

## COC1CN(C(=O)c2ccc3c(N)ncc(-c4ccc(-c5cnn(C)c5)cc4)c3n2)C1 [Compound 51]
[1]
  percentage effect: 20%
[2]
  percentage effect: 1%
[3]
  percentage effect: 20%
[4]
  percentage effect: -1%
[5]
  percentage effect: 0%
[6]
  percentage effect: 2%
[7]
  percentage effect: 10%
[8]
  percentage effect: 2%
[9]
  percentage effect: 8%
[10]
  percentage effect: -3%
[11]
  percentage effect: 10%
[12]
  percentage effect: -3%
[13]
  percentage effect: 3%
[14]
  percentage effect: -37%
[15]
  percentage effect: -18%
[16]
  percentage effect: -11%
[17]
  percentage effect: 0%
[18]
  percentage effect: 7%
[19]
  percentage effect: -23%
[20]
  percentage effect: -9%
[21]
  percentage effect: -8%
[22]
  percentage effect: -10%
[23]
  percentage effect: -18%
[24]
  percentage effect: 4%
[25]
  percentage effect: 5%
[26]
  percentage effect: -3%
[27]
  percentage effect: -9%
[28]
  percentage effect: 43%
[29]
  percentage effect: -2%
[30]
  percentage effect: 6%
[31]
  percentage effect: 0%
[32]
  percentage effect: 2%
[33]
  percentage effect: 7%
[34]
  percentage effect: -10%
[35]
  percentage effect: -9%
[36]
  percentage effect: -24%
[37]
  percentage effect: 0%
[38]
  percentage effect: 6%
[39]
  percentage effect: -10%
[40]
  percentage effect: -3%
[41]
  percentage effect: -9%
[42]
  percentage effect: 3%
[43]
  percentage effect: -13%
[44]
  percentage effect: -10%
[45]
  percentage effect: 6%

## COC1CN(C(=O)c2ccc3c(N)ncc(-c4ccc(-c5cnn(C)c5)cc4)c3c2)C1 [Compound 59]
[1]
  percentage effect: -10%
[2]
  percentage effect: 5%
[3]
  percentage effect: -4%
[4]
  percentage effect: -10%
[5]
  percentage effect: -5%
[6]
  percentage effect: 8%
[7]
  percentage effect: 10%
[8]
  percentage effect: -10%
[9]
  percentage effect: 6%
[10]
  percentage effect: -7%
[11]
  percentage effect: 11%
[12]
  percentage effect: -6%
[13]
  percentage effect: 14%
[14]
  percentage effect: -14%
[15]
  percentage effect: -9%
[16]
  percentage effect: -13%
[17]
  percentage effect: -20%
[18]
  percentage effect: -34%
[19]
  percentage effect: -7%
[20]
  percentage effect: -4%
[21]
  percentage effect: -4%
[22]
  percentage effect: -10%
[23]
  percentage effect: -7%
[24]
  percentage effect: 0%
[25]
  percentage effect: -4%
[26]
  percentage effect: 10%
[27]
  percentage effect: 5%
[28]
  percentage effect: 6%
[29]
  percentage effect: -12%
[30]
  percentage effect: 0%
[31]
  percentage effect: 43%
[32]
  percentage effect: -13%
[33]
  percentage effect: -6%
[34]
  percentage effect: -11%
[35]
  percentage effect: -13%
[36]
  percentage effect: -9%
[37]
  percentage effect: 0%
[38]
  percentage effect: 22%
[39]
  percentage effect: 8%
[40]
  percentage effect: 5%
[41]
  percentage effect: 9%
[42]
  percentage effect: 8%
[43]
  percentage effect: -7%
[44]
  percentage effect: -8%
[45]
  percentage effect: -10%
